The values below come from ChEMBL document CHEMBL1201862, “PubChem BioAssay data set” (2004).

Experiment [1] can be described thus: growth suppression of beta-catenin-knockout colon cells, dose response, cell-based, HCT116, human colon tumor (AID 1045).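 Also: HCT116 colon tumor cells with beta catenin knocked out; cells exposed to compound for 60 hours.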 The format is functional.
The nature of experiment [2]: cytotoxicity toward DRD oncogenic fibroblasts, dose response, cell-based, non-viral oncogenic, luminescence (AID 1934). The format is functional. The following applies: Homo sapiens.
Experiment [3] has as its target T1, Apoptotic protease-activating factor 1 (Homo sapiens, UniProt O14727).
T1 sequence (O14727 whole entry): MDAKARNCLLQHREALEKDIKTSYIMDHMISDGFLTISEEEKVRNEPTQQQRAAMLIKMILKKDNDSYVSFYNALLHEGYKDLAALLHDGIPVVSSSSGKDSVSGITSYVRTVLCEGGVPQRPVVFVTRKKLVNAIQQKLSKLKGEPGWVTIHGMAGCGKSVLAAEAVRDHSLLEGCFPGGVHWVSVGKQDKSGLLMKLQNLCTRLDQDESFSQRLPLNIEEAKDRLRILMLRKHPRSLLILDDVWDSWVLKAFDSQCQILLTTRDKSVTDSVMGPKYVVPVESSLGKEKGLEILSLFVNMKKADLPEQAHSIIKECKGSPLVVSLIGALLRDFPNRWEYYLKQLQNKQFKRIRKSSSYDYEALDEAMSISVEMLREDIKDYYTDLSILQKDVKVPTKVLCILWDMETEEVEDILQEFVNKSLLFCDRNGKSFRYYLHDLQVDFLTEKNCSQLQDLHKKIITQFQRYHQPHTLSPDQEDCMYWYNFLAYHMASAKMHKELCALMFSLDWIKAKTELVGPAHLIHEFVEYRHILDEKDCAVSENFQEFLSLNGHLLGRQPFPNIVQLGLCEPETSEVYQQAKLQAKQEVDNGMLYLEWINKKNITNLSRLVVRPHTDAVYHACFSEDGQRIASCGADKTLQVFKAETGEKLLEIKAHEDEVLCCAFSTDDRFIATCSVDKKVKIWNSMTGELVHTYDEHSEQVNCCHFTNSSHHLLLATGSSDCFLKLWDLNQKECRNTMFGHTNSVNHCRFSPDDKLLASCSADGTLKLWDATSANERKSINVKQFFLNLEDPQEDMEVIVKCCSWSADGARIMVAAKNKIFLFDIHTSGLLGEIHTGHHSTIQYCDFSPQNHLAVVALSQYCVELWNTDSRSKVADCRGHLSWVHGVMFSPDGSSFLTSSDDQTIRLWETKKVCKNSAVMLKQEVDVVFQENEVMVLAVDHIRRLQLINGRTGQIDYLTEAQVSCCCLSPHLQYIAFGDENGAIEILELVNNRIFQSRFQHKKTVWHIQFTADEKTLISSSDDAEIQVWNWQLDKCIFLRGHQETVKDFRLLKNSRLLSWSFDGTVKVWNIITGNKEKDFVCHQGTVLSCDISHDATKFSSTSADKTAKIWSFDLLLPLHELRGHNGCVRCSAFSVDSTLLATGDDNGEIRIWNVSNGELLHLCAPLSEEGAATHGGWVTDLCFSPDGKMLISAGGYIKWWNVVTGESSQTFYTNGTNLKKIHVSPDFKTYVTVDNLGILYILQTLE
The format is functional.

A further experiment concerns INS1. In words: beta cell apoptosis inhibitors, cytokine rescue, dose response, luminescence, retest (AID 449756).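 Also: cell death triggered by IL-1 beta plus TNF-alpha plus IFN-gamma mixture; protective hits raise ATP signal compared with cytokine alone wells.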 It is filed as functional, cell-based. The note with it: Rattus norvegicus.
The test system of experiment [4] is BJ. In words: cytotoxicity toward BJ-TERT-LT-ST fibroblasts, dose response, cell-based, RAS-independent, luminescence (AID 1935).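 Also: BJ fibroblasts immortalized with TERT plus LT and ST oncogenes.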 The note with it: Homo sapiens. The format is functional.
A short description of experiment [5]: growth suppression of PTEN-null colon cells, dose response, cell-based, HCT116 PTEN knockout (AID 1047).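 Also: HCT116 colon tumor cells with PTEN knocked out; cells exposed to compound for 60 hours before readout; potency for loss of cell viability measured by luminescence.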 It is filed as functional.
Experiment [6] deals with Mothers against decapentaplegic homolog 3 (Homo sapiens, UniProt P84022). Kind of experiment: SMAD3 transcription factor inhibitors, dose response (AID 715). It is filed as functional.
Experiment [7] has as its system BJ. Kind of experiment: cytotoxicity toward BJ-TERT fibroblasts, dose response, cell-based, RAS-independent, luminescence (AID 1933). The format is functional. The note with it: Homo sapiens.
Experiment [8] has as its target T2, Heat shock factor protein 1 (Mus musculus, UniProt P38532).
T2 sequence (P38532 whole entry): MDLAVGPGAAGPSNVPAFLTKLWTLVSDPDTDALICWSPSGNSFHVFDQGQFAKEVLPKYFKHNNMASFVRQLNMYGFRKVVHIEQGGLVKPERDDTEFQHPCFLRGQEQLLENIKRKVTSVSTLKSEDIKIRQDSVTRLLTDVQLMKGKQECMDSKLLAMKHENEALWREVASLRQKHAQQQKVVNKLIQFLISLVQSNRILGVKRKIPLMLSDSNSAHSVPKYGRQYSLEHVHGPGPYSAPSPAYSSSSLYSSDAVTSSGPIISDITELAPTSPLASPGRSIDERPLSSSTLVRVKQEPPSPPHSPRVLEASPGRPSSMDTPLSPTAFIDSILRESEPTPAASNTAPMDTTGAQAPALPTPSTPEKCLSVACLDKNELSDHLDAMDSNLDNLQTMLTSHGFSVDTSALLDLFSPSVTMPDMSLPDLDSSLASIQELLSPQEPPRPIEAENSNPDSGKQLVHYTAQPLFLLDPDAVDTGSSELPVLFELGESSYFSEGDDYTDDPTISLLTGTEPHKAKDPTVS
In words: inhibition of MG132-induced HSE-luciferase signal, confirmation, cell-based, NIH3T3, luminescence, dose retest (AID 2382).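 Also: NIH3T3 fibroblasts with HSF1-driven luciferase reporter stressed by proteasome inhibitor MG132; luminescence from HSF1-driven luciferase expression after 8 hours of MG132 stress.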 It is filed as functional.

In experiment [9] the test system is BJ. Kind of experiment: cytotoxicity toward Ras-transformed BJeLR fibroblasts, dose response, cell-based, alamar blue fluorescence, cherrypicked samples (AID 2631).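 Also: confirmatory dose-response assay in RAS-dependent BJ fibroblasts engineered with TERT, LT and ST, with cytotoxicity read by fluorescence.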 The format is functional. The note with it: Homo sapiens.
Experiment [10] has as its system BJ. In words: cells. The note with it: Homo sapiens. It is filed as functional, cell-based.
The target in experiment [11] is 5-hydroxytryptamine receptor 1E (Homo sapiens, UniProt P28566). In words: Counterscreen assay for S1P3 antagonists: Dose response cell-based high throughput screening assay to identify antagonists of the 5-Hydroxytryptamine Receptor Subtype 1E (5HT1E). [Related pubchem assays: 1429, 485 ]. The format is functional.
Experiment [12] has as its target Sphingosine 1-phosphate receptor 3 (Homo sapiens, UniProt Q99500). Kind of experiment: Dose response cell-based high throughput screening assay for antagonists of the Sphingosine 1-Phosphate Receptor 3 (S1P3). [Related pubchem assays: 1429, 485 ]. The format is functional.
The next experiment relates to Vero. In words: Vero cell cytotoxicity, cytotoxicity control for flavivirus capping enzyme inhibitors (AID 588742). The format is functional. The note with it: Chlorocebus sabaeus.
The nature of experiment [13]: Shn3 3'UTR reporter inhibitors, dose response, cell-based, Clone20 osteoblasts, firefly luciferase, cherry-picked (AID 624132).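 Also: firefly luciferase luminescence from reporter carrying the Shn3 3'UTR in osteoblasts.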 The format is functional.
Experiment [14] has as its target T3, High affinity choline transporter 1 (Homo sapiens, UniProt Q9GZV3).
T3 sequence (Q9GZV3 whole entry): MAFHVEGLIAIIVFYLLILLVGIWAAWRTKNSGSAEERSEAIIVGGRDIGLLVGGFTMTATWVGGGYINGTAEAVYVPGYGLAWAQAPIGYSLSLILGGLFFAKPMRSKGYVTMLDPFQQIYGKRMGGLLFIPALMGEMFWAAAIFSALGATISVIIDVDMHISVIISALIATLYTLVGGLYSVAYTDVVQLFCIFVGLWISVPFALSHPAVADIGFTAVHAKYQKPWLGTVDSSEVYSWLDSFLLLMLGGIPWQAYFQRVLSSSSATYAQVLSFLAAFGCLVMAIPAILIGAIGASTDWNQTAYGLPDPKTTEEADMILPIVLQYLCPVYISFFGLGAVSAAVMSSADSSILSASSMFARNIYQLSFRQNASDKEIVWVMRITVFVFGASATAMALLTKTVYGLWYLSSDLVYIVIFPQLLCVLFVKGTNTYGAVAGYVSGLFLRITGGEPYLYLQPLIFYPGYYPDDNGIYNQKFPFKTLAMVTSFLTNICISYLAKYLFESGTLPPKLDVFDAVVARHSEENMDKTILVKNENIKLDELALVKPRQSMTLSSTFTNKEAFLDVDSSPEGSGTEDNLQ
In words: CHT inhibitors, dose response, cell-based, 5-point CRC, membrane potential dye (AID 504840). It is filed as functional.

Experiment [15] in a line: control 3'UTR Renilla luciferase suppression, dose response, counter-screen for Shn3 inhibitor project, cell-based, Clone20-Shn3RL, cherry-picked (AID 624133). It is filed as functional.
For the next experiment, the target named is T4, Protein RecA (Mycobacterium tuberculosis, UniProt P9WHJ3).
T4 sequence (P9WHJ3 whole entry): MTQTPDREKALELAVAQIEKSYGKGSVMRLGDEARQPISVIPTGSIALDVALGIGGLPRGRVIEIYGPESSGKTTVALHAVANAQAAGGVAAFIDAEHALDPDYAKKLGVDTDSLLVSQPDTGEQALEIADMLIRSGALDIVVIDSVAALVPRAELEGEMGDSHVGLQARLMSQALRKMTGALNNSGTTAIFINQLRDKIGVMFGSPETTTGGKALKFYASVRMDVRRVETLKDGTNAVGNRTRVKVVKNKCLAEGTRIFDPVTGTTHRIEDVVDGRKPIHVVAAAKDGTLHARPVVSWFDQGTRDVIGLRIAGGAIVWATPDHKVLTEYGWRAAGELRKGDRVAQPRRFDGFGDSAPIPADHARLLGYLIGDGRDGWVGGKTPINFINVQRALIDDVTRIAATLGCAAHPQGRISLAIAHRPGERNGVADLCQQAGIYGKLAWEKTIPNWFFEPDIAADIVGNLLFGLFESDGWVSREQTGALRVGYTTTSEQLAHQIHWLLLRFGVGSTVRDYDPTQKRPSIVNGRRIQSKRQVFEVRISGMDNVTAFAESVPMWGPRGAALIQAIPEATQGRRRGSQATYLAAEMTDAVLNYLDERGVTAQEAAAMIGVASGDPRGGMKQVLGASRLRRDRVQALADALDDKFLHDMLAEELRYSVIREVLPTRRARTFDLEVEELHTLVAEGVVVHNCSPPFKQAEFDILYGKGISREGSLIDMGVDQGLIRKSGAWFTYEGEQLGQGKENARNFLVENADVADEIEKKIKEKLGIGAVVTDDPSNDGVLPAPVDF
In words: Fluorescence Cell-Free Homogeneous Dose Retest to Identify Inhibitors of RecA-Intein Splicing Activity. [Related pubchem assays (depositor defined):AID2097, AID2223, AID489010, AID492950]. It is filed as functional.

In experiment [16] the target is Potassium voltage-gated channel subfamily KQT member 2 (Rattus norvegicus, UniProt O88943, W236L). In words: KCNQ2 channel potentiators, dose response, mechanism study for KCNQ2 potentiator project, cell-based, automated electrophysiology (AID 2603). The format is functional.
The next experiment deals with Genome polyprotein (dengue virus type 2, UniProt P29990). In words: Dengue-2 NS5 methyltransferase inhibitors, primary screen, biochemical, confirmation dose response (AID 588689). It is filed as functional.
Experiment [17] deals with T5, Replicative DNA helicase DnaB (Mycobacterium tuberculosis, UniProt P9WMR3).
T5 sequence (P9WMR3 whole entry): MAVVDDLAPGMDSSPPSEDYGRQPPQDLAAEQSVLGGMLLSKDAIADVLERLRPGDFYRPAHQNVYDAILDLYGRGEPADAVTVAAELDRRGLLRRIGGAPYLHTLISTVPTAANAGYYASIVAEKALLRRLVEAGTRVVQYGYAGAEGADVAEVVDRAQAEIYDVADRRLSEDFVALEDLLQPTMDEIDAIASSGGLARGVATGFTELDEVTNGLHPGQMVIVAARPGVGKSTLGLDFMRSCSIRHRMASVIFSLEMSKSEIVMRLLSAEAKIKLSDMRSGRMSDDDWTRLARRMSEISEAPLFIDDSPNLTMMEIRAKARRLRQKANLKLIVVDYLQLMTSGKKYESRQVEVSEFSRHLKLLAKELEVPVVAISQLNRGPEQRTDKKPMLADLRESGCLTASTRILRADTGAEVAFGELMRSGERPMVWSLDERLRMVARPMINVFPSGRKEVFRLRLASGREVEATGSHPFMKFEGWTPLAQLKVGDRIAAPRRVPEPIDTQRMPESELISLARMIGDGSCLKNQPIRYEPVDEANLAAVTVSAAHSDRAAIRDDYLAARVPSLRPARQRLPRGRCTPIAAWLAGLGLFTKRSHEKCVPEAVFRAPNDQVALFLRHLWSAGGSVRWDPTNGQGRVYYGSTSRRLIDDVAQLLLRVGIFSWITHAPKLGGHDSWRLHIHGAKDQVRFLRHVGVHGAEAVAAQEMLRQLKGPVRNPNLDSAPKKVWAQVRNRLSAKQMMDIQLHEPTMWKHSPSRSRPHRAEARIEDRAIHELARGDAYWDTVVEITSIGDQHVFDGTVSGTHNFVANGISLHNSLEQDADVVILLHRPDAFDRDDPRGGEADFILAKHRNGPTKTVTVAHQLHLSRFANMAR
In words: DnaB intein splicing inhibitors, dose response, biochemical, cell-free fluorescence (AID 449749). It is filed as functional.

Experiment [18] has as its target ATP-binding cassette sub-family B member 6 (Homo sapiens, UniProt Q9NP58). In words: ABCB6 transporter inhibitors, porphyrin accumulation, dose response, flow cytometry, K562-ABCB6 cells, cherry pick 02 (AID 624487). The format is functional. The following applies: read-out: EC50_MICROM.

Active and inactive are the calls of the source.

Chain of Mothers against decapentaplegic homolog 3 (P84022 whole entry): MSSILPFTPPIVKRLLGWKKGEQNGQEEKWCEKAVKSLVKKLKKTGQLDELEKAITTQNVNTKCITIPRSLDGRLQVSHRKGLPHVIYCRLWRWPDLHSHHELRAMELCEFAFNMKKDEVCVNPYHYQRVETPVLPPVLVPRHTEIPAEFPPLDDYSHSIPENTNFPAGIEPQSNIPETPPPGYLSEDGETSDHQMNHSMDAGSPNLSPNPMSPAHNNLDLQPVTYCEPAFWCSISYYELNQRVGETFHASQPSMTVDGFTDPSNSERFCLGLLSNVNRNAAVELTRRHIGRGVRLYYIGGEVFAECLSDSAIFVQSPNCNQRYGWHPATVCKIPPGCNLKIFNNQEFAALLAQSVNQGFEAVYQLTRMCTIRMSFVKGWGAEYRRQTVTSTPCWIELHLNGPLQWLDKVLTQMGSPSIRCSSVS
Chain of ATP-binding cassette sub-family B member 6 (Q9NP58 whole entry): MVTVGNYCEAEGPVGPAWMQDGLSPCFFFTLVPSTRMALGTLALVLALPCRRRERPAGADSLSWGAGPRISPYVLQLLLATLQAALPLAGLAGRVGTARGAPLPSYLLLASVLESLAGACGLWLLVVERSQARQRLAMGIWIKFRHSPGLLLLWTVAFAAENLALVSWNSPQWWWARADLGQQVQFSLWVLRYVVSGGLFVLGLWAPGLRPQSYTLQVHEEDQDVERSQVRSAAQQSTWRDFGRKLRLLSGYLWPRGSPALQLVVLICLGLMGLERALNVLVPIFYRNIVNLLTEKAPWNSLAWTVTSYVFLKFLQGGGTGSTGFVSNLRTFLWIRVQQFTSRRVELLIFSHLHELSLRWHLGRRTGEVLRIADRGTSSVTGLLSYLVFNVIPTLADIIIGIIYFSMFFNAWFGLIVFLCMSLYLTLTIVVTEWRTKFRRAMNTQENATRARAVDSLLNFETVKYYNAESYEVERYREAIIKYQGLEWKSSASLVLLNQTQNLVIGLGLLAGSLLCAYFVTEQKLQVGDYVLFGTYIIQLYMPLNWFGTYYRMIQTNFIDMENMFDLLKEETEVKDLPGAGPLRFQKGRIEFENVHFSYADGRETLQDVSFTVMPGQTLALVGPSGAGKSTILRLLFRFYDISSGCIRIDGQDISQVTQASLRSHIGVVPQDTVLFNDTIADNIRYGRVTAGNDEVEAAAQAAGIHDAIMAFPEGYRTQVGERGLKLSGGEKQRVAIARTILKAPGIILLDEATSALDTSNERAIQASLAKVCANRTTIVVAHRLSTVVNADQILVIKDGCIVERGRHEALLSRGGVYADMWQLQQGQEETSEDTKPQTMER
Chain of Sphingosine 1-phosphate receptor 3 (Q99500 whole entry): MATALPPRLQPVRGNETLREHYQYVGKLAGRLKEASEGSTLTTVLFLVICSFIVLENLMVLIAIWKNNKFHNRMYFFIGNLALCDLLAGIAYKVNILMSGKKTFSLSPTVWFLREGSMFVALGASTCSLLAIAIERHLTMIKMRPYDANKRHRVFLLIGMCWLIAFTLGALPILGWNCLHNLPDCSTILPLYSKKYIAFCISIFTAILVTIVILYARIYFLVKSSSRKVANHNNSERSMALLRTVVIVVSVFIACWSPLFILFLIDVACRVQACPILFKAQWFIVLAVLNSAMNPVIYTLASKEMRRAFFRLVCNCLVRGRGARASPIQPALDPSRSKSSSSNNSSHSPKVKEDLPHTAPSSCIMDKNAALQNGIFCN
Chain of Potassium voltage-gated channel subfamily KQT member 2 (O88943 whole entry W236L): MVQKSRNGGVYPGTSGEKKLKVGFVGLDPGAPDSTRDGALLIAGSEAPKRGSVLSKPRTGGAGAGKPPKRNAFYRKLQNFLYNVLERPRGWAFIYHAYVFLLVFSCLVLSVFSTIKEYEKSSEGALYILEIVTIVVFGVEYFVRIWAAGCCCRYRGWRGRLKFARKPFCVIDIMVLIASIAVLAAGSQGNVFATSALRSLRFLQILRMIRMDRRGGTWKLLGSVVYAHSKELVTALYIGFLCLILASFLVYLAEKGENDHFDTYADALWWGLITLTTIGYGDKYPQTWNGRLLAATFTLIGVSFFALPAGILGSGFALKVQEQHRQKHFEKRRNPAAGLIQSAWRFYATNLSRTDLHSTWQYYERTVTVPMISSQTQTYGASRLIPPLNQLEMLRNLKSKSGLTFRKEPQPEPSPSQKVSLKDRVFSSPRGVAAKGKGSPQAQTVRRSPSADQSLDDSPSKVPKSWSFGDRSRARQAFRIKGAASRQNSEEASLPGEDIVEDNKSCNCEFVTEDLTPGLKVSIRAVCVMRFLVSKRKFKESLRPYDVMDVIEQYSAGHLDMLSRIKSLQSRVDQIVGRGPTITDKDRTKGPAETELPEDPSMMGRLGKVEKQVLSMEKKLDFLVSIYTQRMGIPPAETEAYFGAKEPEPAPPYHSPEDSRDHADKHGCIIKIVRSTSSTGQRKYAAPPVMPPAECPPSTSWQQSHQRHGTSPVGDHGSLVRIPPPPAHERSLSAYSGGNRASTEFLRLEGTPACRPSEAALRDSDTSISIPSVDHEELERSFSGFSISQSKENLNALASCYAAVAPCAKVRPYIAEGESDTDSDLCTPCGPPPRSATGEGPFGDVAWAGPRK
Chain of 5-hydroxytryptamine receptor 1E (P28566 whole entry): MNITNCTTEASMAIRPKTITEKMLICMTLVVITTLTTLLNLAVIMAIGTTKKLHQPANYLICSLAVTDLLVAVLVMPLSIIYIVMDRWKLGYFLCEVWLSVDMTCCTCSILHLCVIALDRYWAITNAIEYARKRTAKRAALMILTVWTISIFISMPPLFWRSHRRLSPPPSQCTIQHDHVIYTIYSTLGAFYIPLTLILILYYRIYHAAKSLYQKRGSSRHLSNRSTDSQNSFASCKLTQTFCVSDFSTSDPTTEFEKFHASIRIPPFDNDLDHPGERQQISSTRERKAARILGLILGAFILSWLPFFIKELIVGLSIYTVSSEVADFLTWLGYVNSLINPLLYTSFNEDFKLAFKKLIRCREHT
Chain of Genome polyprotein (P29990 2492-3391 limits assumed): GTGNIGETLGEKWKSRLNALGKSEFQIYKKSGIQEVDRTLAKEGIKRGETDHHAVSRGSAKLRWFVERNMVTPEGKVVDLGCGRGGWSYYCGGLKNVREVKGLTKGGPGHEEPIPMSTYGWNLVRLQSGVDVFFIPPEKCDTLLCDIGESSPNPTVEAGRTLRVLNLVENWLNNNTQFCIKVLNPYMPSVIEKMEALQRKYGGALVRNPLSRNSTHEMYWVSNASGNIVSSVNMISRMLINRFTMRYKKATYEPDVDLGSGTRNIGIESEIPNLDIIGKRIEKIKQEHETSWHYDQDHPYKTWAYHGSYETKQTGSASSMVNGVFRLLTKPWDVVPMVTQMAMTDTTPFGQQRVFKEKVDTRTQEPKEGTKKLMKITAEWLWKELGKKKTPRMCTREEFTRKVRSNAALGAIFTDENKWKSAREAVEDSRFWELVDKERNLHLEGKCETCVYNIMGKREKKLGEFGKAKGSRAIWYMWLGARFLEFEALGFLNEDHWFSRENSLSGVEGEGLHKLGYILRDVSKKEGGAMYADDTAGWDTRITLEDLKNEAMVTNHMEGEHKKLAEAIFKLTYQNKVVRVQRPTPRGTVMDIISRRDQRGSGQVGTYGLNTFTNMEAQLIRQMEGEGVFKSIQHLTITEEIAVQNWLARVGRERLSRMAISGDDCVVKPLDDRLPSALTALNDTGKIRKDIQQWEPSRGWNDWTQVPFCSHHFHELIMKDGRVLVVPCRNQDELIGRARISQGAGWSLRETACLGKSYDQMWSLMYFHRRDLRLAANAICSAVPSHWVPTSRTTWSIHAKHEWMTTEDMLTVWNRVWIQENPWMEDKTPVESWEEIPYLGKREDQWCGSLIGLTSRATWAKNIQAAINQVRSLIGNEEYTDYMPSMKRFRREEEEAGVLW

For the molecule `O=C1C(=O)c2ccc(-c3ccccc3)cc2-c2ccccc21`, the EC50 was 1.21 µM (active) in [1]; 2.21 µM (active) in experiment [2]; 1.23 µM (inconclusive) in the experiment with BJ [4]; 1.16 µM (active) in [5]; 1.02 µM (active) in the experiment with BJ [7]; 1.75 µM (active) in experiment [8]. Besides, the EC50 with BJ [9] was 1.6 µM (active); with BJ [10] it was 2.75 µM (inconclusive). Also, the IC50 is 316 nM (active) in experiment [3] and 2 µM (active) in experiment [6]. Besides, the AC50 in the experiment with INS1 was 1.04 µM (active).

As to `Cc1cc(C(=O)OC(C(=O)Nc2ccc(C)c(Cl)c2)c2ccccc2)c(C)o1` (configuration not stated), the IC50 in [11] is on record as 13.4 µM (not active); in experiment [12], 11.8 µM (not active).

Consider `CC(C)c1nnc(NC(=O)c2nc(S(=O)(=O)Cc3ccccc3)ncc2Cl)s1`, for which the CC50 with Vero is 25.9 µM (active). For the same molecule, the concentration at half-maximal activity (AC50) in [13] was 876 nM (active); in experiment [15] it was 6.32 µM (active); in [17], 48 µM (active). For the same molecule, the IC50 in experiment [14] was 4.47 µM (active); on Genome polyprotein, > 100 µM (active). The EC50 at Protein RecA is 8.12 µM (active); in experiment [16], 6.2 µM (active); in [18] it was 36.8 µM (active).
